Earlier results as cited in patent US20260033492A1, “Pest Repellents and Uses Thereof” (priority 2020, published 2026).

What was measured:
[1] = in vivo
[2] = target: acetylcholinesterase (Homo sapiens, UniProt P22303); conditions: in humans
[3] = system: insects; conditions: in vivo
[4] = system: salamander larvae; conditions: in vivo

Chain of acetylcholinesterase (P22303 32-614): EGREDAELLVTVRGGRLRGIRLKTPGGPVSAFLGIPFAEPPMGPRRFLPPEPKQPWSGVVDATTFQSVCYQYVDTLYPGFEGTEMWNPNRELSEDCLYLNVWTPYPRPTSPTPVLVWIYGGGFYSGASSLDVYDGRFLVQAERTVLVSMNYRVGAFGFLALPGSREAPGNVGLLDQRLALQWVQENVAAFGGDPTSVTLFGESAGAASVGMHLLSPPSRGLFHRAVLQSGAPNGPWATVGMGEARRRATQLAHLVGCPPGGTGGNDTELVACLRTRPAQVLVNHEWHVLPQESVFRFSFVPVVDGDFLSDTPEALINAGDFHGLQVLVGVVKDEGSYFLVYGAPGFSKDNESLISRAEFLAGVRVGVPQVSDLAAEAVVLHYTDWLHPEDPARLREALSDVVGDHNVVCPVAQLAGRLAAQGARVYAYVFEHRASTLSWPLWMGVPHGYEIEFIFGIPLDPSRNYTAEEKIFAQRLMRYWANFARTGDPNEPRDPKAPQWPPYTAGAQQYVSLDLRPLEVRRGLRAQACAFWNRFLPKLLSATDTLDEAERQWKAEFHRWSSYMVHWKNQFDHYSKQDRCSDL

| SMILES | irritancy / skin reactions [1] | inhibition of acetylcholinesterase [2] | effectiveness at repelling insects relative to DEET [3] | toxicity to salamander larvae [4] |
| --- | --- | --- | --- | --- |
| CCN(CC)C(=O)c1cccc(C)c1 [DEET, N,N-diethyl-meta-toluamide] | act as an irritant | inhibit acetylcholinesterase | – | – |
| CCC(C)OC(=O)N1CCCCC1CCO (stereo not shown) [Icaridin] | – | – | as effective as DEET | toxic to salamander larvae |
